Read-outs that look alike come from different tables or passages of the source. Marks after values point to notes of the source that are not given here.
Key:
AAMU-Ab = experiment: Competitive antigen ELISA, cross-reactivity of AAMU-Ab; type: binding, rabbit; details: for % Cross-Reaction AAMU-Ab: competitive antigen ELISA, 0 = absence of inhibition or inhibition no higher than 40% at highest concentration tested (5×10^−3 M)
Description: (§1) Buffers and water without additives are filtered through millipore filters and kept for 1 week. BSA, antibodies, Tween™ 20 and horse radish peroxidase conjugates are added to these buffers and water just prior to use. Urine samples are usually collected 4 hours after drinking a cup of coffee (instant or brewed with approximately 100 mg of caffeine per cup) and stored at −80° C. The urine samples are diluted 10 times with sodium phosphate buffer (620 mosm, pH 7.50) and are subsequently diluted with water to give concentrations of AAMU and 1X no higher than 3×10^−6 M in the ELISA. All the pipettings are done with an eight-channel pipette, except those of the antibody and sample solutions. Starting with the last well, 100 μL of a carbonate buffer (100 mM, pH 9.6) containing 2.5 μg mL-1 antibodies are added to each well. After 90 min. at room temperature, the wells are washed three times with […] of TPB: isotonic sodium phosphate buffer (310 mosm, pH 7.50) containing 0.05% Tween™ 20.
(§2) After the initial wash, unoccupied sites are blocked by incubation for 90 min. at room temperature with 100 μL TBP containing 3% BSA. The wells are washed four times with 100 μL TPB. […] The microplate is gently shaken with an orbital shaker at room temperature for 3-4 hours. The wells are washed three times with 100 μL TPB containing 1% BSA and three times with water containing 0.05% Tween™ 20. To the washed plate is added 150 μL of a substrate buffer composed of citric acid (25 mM) and sodium phosphate dibasic buffer (50 mM, pH 5.0) containing 0.06% hydrogen peroxide and 0.04% o-phenylenediamine hydrochloride.
(§3) Buffers and water without additives were filtered through millipore filters and kept for 1 week. BSA, antibodies, Tween™ 20 and horse radish peroxidase conjugates were added to these buffers and water just prior to use. Urine samples were usually collected 4 hours after drinking a cup of coffee (instant or brewed with approximately 100 mg of caffeine per cup) and stored at −80° C. They were diluted 10 times with sodium phosphate buffer (620 mosm, pH 7.50) and were subsequently diluted with water to give concentrations of AAMU and 1X no higher than 3×10^−6 M in the ELISA. All the pipettings were done with an eight-channel pipette, except those of the antibody and sample solutions. Starting with the last well, 100 μL of a carbonate buffer (100 mM, pH 9.6) containing 2.5 μg mL-1 antibodies was pipetted. After 90 min. at room temperature, the wells were washed three times with 100 μL of TPB: isotonic sodium phosphate buffer (310 mosm, pH 7.50) containing 0.05% Tween™ 20.
(§4) After the initial wash, unoccupied sites were blocked by incubation for 90 min. at room temperature with 100 μL TBP containing 3% BSA. The wells were washed four times with 100 μL TPB. […] The microplate was gently shaken with an orbital shaker at room temperature for 3-4 hours. The wells were washed three times with 100 μL with TPB containing 1% BSA and three times with water containing 0.05% Tween™ 20. To the washed plate was added 150 μL of a substrate buffer composed of citric acid (25 mM) and sodium phosphate dibasic buffer (50 mM, pH 5.0) containing 0.06% hydrogen peroxide and 0.04% o-phenylenediamine hydrochloride. After 20 min. at room temperature with shaking, the reaction was stopped with 50 μL of 2.5 N HCl.
(§5) The cross reactivities of AAMU-Ab and 1X-Ab were tested using a wide variety of caffeine metabolites and structural analogs (Table 5 below).

1X-Ab = experiment: Competitive antigen ELISA, cross-reactivity of 1X-Ab; type: binding, rabbit; details: for % Cross-Reaction 1X-Ab: competitive antigen ELISA, 0 = absence of inhibition or inhibition no higher than 40% at highest concentration tested (5×10^−3 M)
Description: as §1, §2, §3, §4, §5

[1] = cited from earlier work

| IC50 (1X-Ab; read-out: concentration required for 50% inhibition in the competitive antigen ELISA, 1X-Ab) | IC50 (AAMU-Ab; read-out: concentration required for 50% inhibition in the competitive antigen ELISA, AAMU-Ab) | Compound | % Cross-Reaction AAMU-Ab (AAMU-Ab) | % Cross-Reaction 1X-Ab (1X-Ab) | adverse reactions to dapsone ([1]; fast acetylators) | adverse reactions to dapsone ([1]; slow acetylators) |
| --- | --- | --- | --- | --- | --- | --- |
|  |  | Cn1c(=O)c2c(ncn2C)n(C)c1=O [1,3,7-Trimethyl Xanthine (Caffeine), 1,3,7-Trimethyl Xanthine] | 0% | 0% |  |  |
|  |  | Cn1c(=O)c2[nH]cnc2n(C)c1=O [1,3-Dimethyl Xanthine (Theophylline), 1,3-Dimethyl Xanthine] | 0% | 0.2% |  |  |
|  |  | Cn1c(=O)[nH]c2ncn(C)c2c1=O [1,7-Dimethyl Xanthine (Paraxanthine), 1,7-Dimethyl Xanthine] | 0% | 0.5% |  |  |
|  |  | Cn1c(=O)[nH]c2[nH]c(=O)n(C)c2c1=O [1,7-Dimethyluric acid] | 0% | 0% |  |  |
| 10 µM |  | Cn1c(=O)[nH]c2nc[nH]c2c1=O [1-Methyl Xanthine (1X), 1-Methyl Xanthine] | 0% | 100% |  |  |
|  |  | Cn1c(=O)[nH]c2[nH]c(=O)[nH]c2c1=O [1-Methyluric acid] | 0% | 11% |  |  |
|  |  | Cn1cnc2c1c(=O)[nH]c(=O)n2C [3,7-Dimethyl Xanthine (Theobromine), 3,7-Dimethyl Xanthine] | 0% | 0% |  |  |
|  |  | Cn1c(=O)[nH]c(=O)c2[nH]cnc21 [3-Methyl Xanthine] | 0% | 0% |  |  |
|  |  | CC(=O)Nc1c(N)n(C)c(=O)n(C)c1=O [5-Acetamino-6-amino-1,3-dimethyluracil] | 0% | 0% |  |  |
|  | 1.5 µM | CC(=O)Nc1c(N)n(C)c(=O)[nH]c1=O [5-Acetamino-6-amino-1-methyluracil] | 100% | 0% |  |  |
|  |  | CC(=O)Nc1c(N)[nH]c(=O)[nH]c1=O [5-Acetamino-6-amino-uracil] | 0.6% | 0% |  |  |
|  |  | Cn1cnc2[nH]c(=O)[nH]c(=O)c21 [7-Methyl Xanthine] | 0% | 0% |  |  |
|  |  | Cc1nc2[nH]c(=O)[nH]c(=O)c2[nH]1 [8-Methyl Xanthine] | 0% | 0% |  |  |
|  |  | Nc1nc2nc[nH]c2c(=O)[nH]1 [Guanine] | 0% | 0% |  |  |
|  |  | O=c1[nH]cnc2nc[nH]c12 [Hypoxanthine] | 0% | 0% |  |  |
|  |  | O=c1cc[nH]c(=O)[nH]1 [Uracil] | 0% | 0% |  |  |
|  |  | O=c1[nH]c(=O)c2[nH]c(=O)[nH]c2[nH]1 [Uric acid] | 0% | 0% |  |  |
|  |  | O=c1[nH]c(=O)c2[nH]cnc2[nH]1 [Xanthine] | 0^a % | 0% |  |  |
|  |  | Nc1ccc(S(=O)(=O)c2ccc(N)cc2)cc1 [dapsone] |  |  | 17% | 46% |

From patent US20030072710A1, “Individualization of therapy with antidepressants” (McGill University, priority 2001, published 2003)
